Converted amounts (≈) assume the structure as drawn.
Experiments:
DNA gyrase [1] = target: T1, DNA gyrase (Staphylococcus aureus, UniProt P0A0K8+P20831); assay: Inhibition of Staphylococcus aureus DNA gyrase; type: protein-complex assay
DNA gyrase [2] = target: DNA gyrase (Escherichia coli, UniProt P0AES4+P0AES6); assay: Inhibition of Escherichia coli DNA gyrase; type: protein-complex assay
[3] = target: T2, DNA gyrase subunit A/DNA gyrase subunit B (Mycobacterium tuberculosis (strain ATCC 25618 / H37Rv), UniProt P9WG45+P9WG47); assay: Inhibition of Mycobacterium tuberculosis (MTB) DNA gyrase using pBR322 DNA by supercoiling assay; type: protein-complex assay
T2 sequence (P9WG45 whole entry): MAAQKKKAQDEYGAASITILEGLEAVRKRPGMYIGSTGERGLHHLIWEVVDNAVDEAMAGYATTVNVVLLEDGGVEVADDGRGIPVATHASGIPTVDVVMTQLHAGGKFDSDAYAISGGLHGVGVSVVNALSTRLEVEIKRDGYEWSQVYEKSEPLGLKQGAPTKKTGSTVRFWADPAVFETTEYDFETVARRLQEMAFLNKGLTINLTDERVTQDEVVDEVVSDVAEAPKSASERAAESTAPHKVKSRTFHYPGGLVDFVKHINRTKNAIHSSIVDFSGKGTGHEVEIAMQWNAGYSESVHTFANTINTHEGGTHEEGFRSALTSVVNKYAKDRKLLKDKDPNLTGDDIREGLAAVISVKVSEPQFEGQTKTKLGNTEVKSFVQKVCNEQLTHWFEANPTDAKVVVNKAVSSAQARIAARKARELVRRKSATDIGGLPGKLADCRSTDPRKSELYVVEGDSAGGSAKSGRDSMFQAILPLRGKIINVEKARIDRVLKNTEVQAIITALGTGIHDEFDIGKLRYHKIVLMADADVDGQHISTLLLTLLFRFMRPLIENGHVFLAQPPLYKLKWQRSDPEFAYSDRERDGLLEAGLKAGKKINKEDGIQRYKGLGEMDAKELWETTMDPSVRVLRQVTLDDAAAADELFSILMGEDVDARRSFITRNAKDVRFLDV
T2 sequence (P9WG47 whole entry): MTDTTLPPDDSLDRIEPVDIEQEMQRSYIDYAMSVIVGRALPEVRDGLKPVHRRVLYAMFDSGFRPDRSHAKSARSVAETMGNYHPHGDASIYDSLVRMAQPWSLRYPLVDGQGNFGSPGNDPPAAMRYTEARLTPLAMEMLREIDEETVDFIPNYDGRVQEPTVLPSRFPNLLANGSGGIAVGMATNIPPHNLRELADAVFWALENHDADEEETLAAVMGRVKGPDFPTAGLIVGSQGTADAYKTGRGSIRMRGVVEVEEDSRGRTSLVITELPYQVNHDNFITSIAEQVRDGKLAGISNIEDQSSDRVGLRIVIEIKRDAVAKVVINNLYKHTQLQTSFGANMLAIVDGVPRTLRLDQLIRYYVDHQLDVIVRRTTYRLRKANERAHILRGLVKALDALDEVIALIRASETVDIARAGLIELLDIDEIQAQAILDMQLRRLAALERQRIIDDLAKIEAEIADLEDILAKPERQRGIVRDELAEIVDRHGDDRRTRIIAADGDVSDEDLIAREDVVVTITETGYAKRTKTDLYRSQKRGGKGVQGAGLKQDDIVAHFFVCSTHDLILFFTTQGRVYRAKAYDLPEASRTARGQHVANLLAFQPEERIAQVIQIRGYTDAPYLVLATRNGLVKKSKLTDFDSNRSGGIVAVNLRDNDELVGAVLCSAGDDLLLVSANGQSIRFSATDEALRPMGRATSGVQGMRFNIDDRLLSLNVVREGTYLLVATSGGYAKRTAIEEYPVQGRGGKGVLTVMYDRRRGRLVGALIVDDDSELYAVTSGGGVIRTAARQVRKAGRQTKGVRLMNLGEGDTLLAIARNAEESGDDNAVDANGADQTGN

[4] = tested on: Mycobacterium tuberculosis; assay: Antimycobacterial activity against Mycobacterium tuberculosis incubated for 7 days by MABA assay; type: functional; conditions: 168 h, time 7 day
Escherichia coli [5] = assay: Antibacterial activity against Escherichia coli assessed as zone of inhibition; type: functional
[6] = tested on: Aggregatibacter actinomycetemcomitans; assay: Antibacterial activity against Aggregatibacter actinomycetemcomitans; type: functional
Bacillus subtilis = assay: Antibacterial activity against Bacillus subtilis; type: functional
Staphylococcus aureus [7] = assay: Antibacterial activity against methicillin-sensitive Staphylococcus aureus; type: functional, organism-based
Staphylococcus aureus [8] = assay: Antibacterial activity against healthcare-acquired methicillin-resistant Staphylococcus aureus; type: functional
Staphylococcus aureus [9] = assay: Antibacterial activity against community-acquired methicillin-resistant Staphylococcus aureus; type: functional
Enterococcus faecalis = assay: Antibacterial activity against Enterococcus faecalis; type: functional
Streptococcus pneumoniae = assay: Antibacterial activity against Streptococcus pneumoniae; type: functional
Acinetobacter baumannii = assay: Antibacterial activity against Acinetobacter baumannii; type: functional
[10] = target: T2, DNA gyrase subunit A/DNA gyrase subunit B; assay: Inhibition of Mycobacterium tuberculosis DNA gyrase; type: protein-complex assay
DNA gyrase [11] = target: T1, DNA gyrase; assay: Inhibition of Staphylococcus aureus DNA gyrase assessed as relaxation of pBR322 DNA by supercoiling assay; type: protein-complex assay
[12] = tested on: Mycobacterium tuberculosis; assay: Antitubercular activity against Mycobacterium tuberculosis H37Rv MTCC-200; type: functional
Staphylococcus aureus [13] = assay: Antibacterial activity against methicillin-resistant Staphylococcus aureus; type: functional, organism-based
Staphylococcus aureus [14] = assay: Antibacterial activity against Staphylococcus aureus; type: functional
Bacillus cereus = assay: Antibacterial activity against Bacillus cereus; type: functional
Escherichia coli [15] = assay: Antibacterial activity against Escherichia coli; type: functional
Klebsiella pneumoniae = assay: Antibacterial activity against Klebsiella pneumoniae; type: functional
Pseudomonas aeruginosa = assay: Antibacterial activity against Pseudomonas aeruginosa; type: functional
[16] = tested on: Mycolicibacterium smegmatis; assay: Antibacterial activity against Mycobacterium smegmatis; type: functional
[17] = tested on: Mycobacterium tuberculosis; assay: Anti-tubercular activity against Mycobacterium tuberculosis H37Rv strain; type: functional

T1 sequence (P0A0K8 whole entry): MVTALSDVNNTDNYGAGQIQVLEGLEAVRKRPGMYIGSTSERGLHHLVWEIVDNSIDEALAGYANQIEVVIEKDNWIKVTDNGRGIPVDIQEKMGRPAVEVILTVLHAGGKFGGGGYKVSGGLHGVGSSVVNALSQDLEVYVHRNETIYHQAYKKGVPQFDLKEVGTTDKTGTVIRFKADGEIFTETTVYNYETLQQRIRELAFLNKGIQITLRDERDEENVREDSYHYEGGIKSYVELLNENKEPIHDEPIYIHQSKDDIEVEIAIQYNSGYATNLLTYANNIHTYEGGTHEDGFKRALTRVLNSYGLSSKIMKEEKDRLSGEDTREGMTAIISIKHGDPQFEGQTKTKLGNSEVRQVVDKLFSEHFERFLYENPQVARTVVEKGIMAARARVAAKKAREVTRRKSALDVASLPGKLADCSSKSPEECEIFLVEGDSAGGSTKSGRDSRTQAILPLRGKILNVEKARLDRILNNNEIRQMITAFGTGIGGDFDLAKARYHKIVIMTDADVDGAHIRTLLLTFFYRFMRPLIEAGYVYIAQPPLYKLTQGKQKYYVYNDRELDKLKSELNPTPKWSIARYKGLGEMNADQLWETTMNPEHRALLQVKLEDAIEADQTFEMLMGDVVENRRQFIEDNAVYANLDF
T1 sequence (P20831 whole entry): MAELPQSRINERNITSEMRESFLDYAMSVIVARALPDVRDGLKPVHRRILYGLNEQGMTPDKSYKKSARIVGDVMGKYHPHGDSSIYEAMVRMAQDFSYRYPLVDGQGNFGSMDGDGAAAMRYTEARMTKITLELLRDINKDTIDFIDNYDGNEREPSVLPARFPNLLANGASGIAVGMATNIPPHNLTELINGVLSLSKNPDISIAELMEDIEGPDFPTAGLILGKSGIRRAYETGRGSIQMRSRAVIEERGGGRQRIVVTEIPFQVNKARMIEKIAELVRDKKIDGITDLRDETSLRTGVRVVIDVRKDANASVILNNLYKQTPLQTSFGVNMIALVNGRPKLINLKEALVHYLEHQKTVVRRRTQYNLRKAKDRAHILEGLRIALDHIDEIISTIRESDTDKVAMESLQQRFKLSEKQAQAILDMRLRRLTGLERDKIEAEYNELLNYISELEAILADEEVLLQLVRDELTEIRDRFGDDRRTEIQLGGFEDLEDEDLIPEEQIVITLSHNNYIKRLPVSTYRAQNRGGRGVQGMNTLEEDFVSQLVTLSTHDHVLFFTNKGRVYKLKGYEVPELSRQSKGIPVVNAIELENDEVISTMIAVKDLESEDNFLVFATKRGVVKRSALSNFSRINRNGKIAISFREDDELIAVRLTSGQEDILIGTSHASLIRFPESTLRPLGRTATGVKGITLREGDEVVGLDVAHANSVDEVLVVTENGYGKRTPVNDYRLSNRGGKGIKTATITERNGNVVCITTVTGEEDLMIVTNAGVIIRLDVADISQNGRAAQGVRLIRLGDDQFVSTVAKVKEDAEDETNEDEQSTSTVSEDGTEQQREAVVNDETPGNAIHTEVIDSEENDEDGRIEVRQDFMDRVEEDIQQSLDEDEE

O=C(O)CCC(=O)Nc1ccc(NC(=O)c2ccco2)cc1
IC50 (DNA gyrase [1]): 12900 nM

O=C(O)C(=O)Nc1ccc(NC(=O)c2cc(Br)c(Br)[nH]2)cc1
IC50 (DNA gyrase [2]): 180 nM

Cc1ccc(NC(=S)N2CCN(c3nc(=O)c4cc([N+](=O)[O-])ccc4s3)CC2)cc1
IC50 [3]: 770 nM | MIC [4]: 1.82 µM (≈ 0.804 µg/mL)

O=c1nc(N2CCN(C(=S)Nc3ccc(Cl)cc3)CC2)sc2ccc([N+](=O)[O-])cc12
IC50 [3]: 820 nM | MIC [4]: 2.83 µM (≈ 1.31 µg/mL)

O=c1nc(N2CCN(C(=S)Nc3ccccc3)CC2)sc2ccc([N+](=O)[O-])cc12
IC50 [3]: 510 nM | MIC [4]: 4.41 µM (≈ 1.89 µg/mL)

O=C(O)C(=O)Nc1nc2ccc(NC(=O)c3cc(Br)c(Br)[nH]3)cc2s1
IC50 (DNA gyrase [2]): 58 nM

O=C(O)CNC(=O)Cc1csc(NC(=O)c2cc(Br)c(Br)[nH]2)n1
IC50 (DNA gyrase [2]): 15900 nM

COc1ccc2c3conc3c(=O)n(CCN3CCC(NCc4ccc5c(n4)NC(=O)CO5)CC3)c2c1
IC50 (DNA gyrase [2]): 416 nM

CCn1cc(-c2nc(/N=C/c3ccc(Br)cc3)n[nH]2)c(=O)c2cc(Br)c(C)nc21
IC50 (DNA gyrase [2]): 3370 nM | inhibition zone (IZ) (Escherichia coli [5]): 23 mm

CCn1cc(-c2nc(NC(=O)c3ccccc3)n[nH]2)c(=O)c2cc(Br)c(C)nc21
MIC [6]: 4.25 µM (≈ 1.93 µg/mL)

CCn1cc(-c2nc(NC(=O)c3ccccc3)n[nH]2)c(=O)c2ccc(C)nc21
IC50 (DNA gyrase [2]): 10400 nM | MIC (Bacillus subtilis): 3.68 µM (≈ 1.38 µg/mL)

COc1c(N2CC3CCCCC3C2)c(F)cc2c(=O)c(C(=O)N3CCSC3)cn(C3CC3)c12 (stereo not drawn)
MIC (Staphylococcus aureus [7]): 0.79 µg/mL (≈ 1.68 µM) | MIC (Staphylococcus aureus [8]): 0.79 µg/mL (≈ 1.68 µM) | MIC (Staphylococcus aureus [9]): 25 µg/mL (≈ 53 µM) | MIC (Enterococcus faecalis): 12.6 µg/mL (≈ 26.7 µM) | MIC (Streptococcus pneumoniae): 50 µg/mL (≈ 106 µM) | MIC (Acinetobacter baumannii): 101 µg/mL (≈ 214 µM) | IC50 [10]: 105000 nM

COC(=O)c1ccc(CNC(=O)[C@H](Cc2ccc(O)cc2)NC(=O)c2cc(Br)c(Br)[nH]2)cc1
IC50 (DNA gyrase [2]): 970 nM

COc1cc2c(cc1OCCCC(=O)Nc1cc(C(=O)Nc3ccc4occc4c3)n(C)c1)N=C[C@@H]1CCCN1C2=O
IC50 (DNA gyrase [11]): 2900 nM

O=C1COc2ccc(CNC3CCN(CCn4c(=O)c5nocc5c5ncccc54)CC3)nc2N1
IC50 (DNA gyrase [2]): 442 nM

COc1cc2c(cc1OCCCC(=O)Nc1cc(C(=O)Nc3ccc4sccc4c3)n(C)c1)N=C[C@@H]1CCCN1C2=O
IC50 (DNA gyrase [11]): 3890 nM

COc1ccc2c3conc3c(=O)n(CCN3CCC(NCc4nc5c(cc4F)OCC(=O)N5)CC3)c2c1
IC50 (DNA gyrase [2]): 402 nM

COC(=O)CNC(=O)c1ccc(NC(=O)c2cc(Cl)c(Cl)[nH]2)c(OCC(C)C)c1
IC50 (DNA gyrase [2]): 2300 nM

O=C1Nc2ccccc2/C1=C/c1ccc(OC(=O)c2ccccc2)cc1
MIC [12]: 73 µg/mL (≈ 214 µM)

CCn1cc(C(=O)N[C@H](CCCNC(=N)N)C(=O)N[C@@H](CC2CCCCC2)C(=O)N[C@H](CCCNC(=N)N)C(=O)N[C@@H](CC2CCCCC2)C(=O)N[C@H](CCCNC(=N)N)C(=O)N[C@@H](CC2CCCCC2)C(N)=O)c(=O)c2ccc(C)nc21
IC50 (Staphylococcus aureus [13]): 1 µg/mL (≈ 0.862 µM) | IC50 (Staphylococcus aureus [7]): 18 µg/mL (≈ 15.5 µM) | IC50 (DNA gyrase [1]): 25000 nM

CCNC(=O)Nc1nc2ccc(NC(=O)Cc3csc(NC(=O)OC(C)(C)C)n3)cc2s1
IC50 (DNA gyrase [2]): 3900 nM

CCn1cc(-c2nnc(Nc3ccc(OC)cc3)o2)c(=O)c2cc(Br)c(C)nc21
IC50 (DNA gyrase [2]): 8530 nM | MIC (Staphylococcus aureus [14]): 5.7 µg/mL (≈ 12.5 µM) | MIC (Bacillus cereus): 5.7 µg/mL (≈ 12.5 µM) | MIC (Escherichia coli [15]): 5.7 µg/mL (≈ 12.5 µM) | MIC (Klebsiella pneumoniae): 5.7 µg/mL (≈ 12.5 µM) | MIC (Pseudomonas aeruginosa): 5.7 µg/mL (≈ 12.5 µM) | MIC [16]: 5.7 µg/mL (≈ 12.5 µM)

CCn1cc(-c2nnc(Nc3ccc(C)cc3)o2)c(=O)c2cc(Br)c(C)nc21
MIC (Staphylococcus aureus [14]): 5.5 µg/mL (≈ 12.5 µM) | MIC (Bacillus cereus): 5.5 µg/mL (≈ 12.5 µM) | MIC (Escherichia coli [15]): 5.5 µg/mL (≈ 12.5 µM) | MIC (Klebsiella pneumoniae): 5.5 µg/mL (≈ 12.5 µM) | MIC (Pseudomonas aeruginosa): 5.5 µg/mL (≈ 12.5 µM) | MIC [16]: 5.5 µg/mL (≈ 12.5 µM)

COc1cc(/C=N/Nc2nc(-c3ccc(Br)cc3)cs2)ccc1Oc1ccnc2cc(Cl)ccc12
MIC [17]: 3.12 µM (≈ 1.77 µg/mL)

Source: ChEMBL document CHEMBL5233247, “Recent advances in DNA gyrase-targeted antimicrobial agents” (Eur J Med Chem, 2020)
